From patent US20100197688A1, “EPHA4 RTK INHIBITORS FOR TREATMENT OF NEUROLOGICAL AND NEURODEGENERATIVE DISORDERS AND CANCER” (priority 2008, published 2010) come the findings set out here.

One series has as its system C2C12 cells. In words: Toxicity (percent of cell death), C2C12 cells. The series is classed as cell-based. Particulars: 20 μM. The protocol:
(§1) EphA4 kinase inhibition is assessed by both an enzymatic assay measuring the phosphorylation of a purified recombinant EphA4 kinase and a cell-based assay using the activation of pGas-Luciferase system in EphA4-transfected CHO-K1 cells. The functional effects of EphA4 RTK inhibitors on cell motility and proliferation is evaluated by the scratch wound assay. The effect of EphA4 RTK inhibitors is also directly measured on the cell confluence. The counterscreen assays (cell counterscreen, Src, Jak2 and P38α kinase) identified other potential inhibitory activities of compounds unrelated to EphA4 kinase. The toxicity is measured by the percent of cell death in the different cell assays. Values represent IC50 and IP in μM calculated from the dose-response curves. Values in parentheses give the maximum percent inhibition.

The next series deals with T1, EphA4 kinase (Homo sapiens, UniProt P54764).
T1 construct: His6-TEV-EphA4 (36 KD) (aa. 615-911); His6 (N); TEV cleavage site (N); made in house; host or cells: Sf9 (baculovirus)
T1 sequence (P54764 615-911): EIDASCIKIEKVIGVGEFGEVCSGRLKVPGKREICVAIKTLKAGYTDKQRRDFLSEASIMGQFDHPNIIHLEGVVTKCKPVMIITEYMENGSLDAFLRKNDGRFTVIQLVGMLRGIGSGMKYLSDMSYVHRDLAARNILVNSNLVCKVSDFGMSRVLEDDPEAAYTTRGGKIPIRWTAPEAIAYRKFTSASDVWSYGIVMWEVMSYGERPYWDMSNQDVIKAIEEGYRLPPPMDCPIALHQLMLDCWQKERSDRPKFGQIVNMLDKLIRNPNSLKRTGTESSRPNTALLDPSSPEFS
As to the kind of experiment: EphA4 kinase enzymatic assay (TR-FRET). Type of series: biochemical. Conditions: for IC50: 25 μM ATP, recombinant His6-TEV-EphA4 (aa. 615-911); for EphA4 Kinase max inhibition in %: maximum percent inhibition (value in parentheses). The protocol:
Recombinant EphA4 kinase His6-TEV-EphA4 (36 KD) (aa. 615-911) was expressed in Sf9 using baculovirus expression system. Hi-tagged protein was purified by high performance liquid chromatography in two step, using a His Trap HP column and a heparin column. The potency of compounds to inhibit EphA4 kinase phosphorylation was measured by an enzymatic assay based on time resolved fluorescence energy transfer assay format (TR-FRET), using Eu-W1024 anti-pTyr antibody (Perkin Elmer, USA) as a donor and SureLight APC (Perkin Elmer, USA) as an acceptor.
Biotinylated Poly(Glu Tyr) peptide (50 nM) was incubated in 384-well with 25 μM ATP (Sigma) and 10 ng EphA4 kinase in NEBuffer (New England Biolabs) for 60 minutes at rt. The reaction was stopped by 15 mM of EDTA solution for 10 minutes at rt. The detection mixture containing 0.5 nM Eu-W1024 anti-pTyr antibody (Perkin Elmer, USA) and 50 nM SureLight APC (Perkin Elmer, USA) was added to the wells and the plate was incubated for 30 min at rt, while protected from light. Energy transfer signal was measured using a Victor 2V (excitation filter 340, emission filter 615 and 665, delay time 50 μs). Results were expressed as ratios of the absorbencies 665/615.
Compounds were titrated in duplicate at 11 points concentration starting at 100 μM with a 3 fold increment. Compounds were diluted in DMSO. […] Percentage inhibition for each compound was then calculated based on the value of the 100% inhibition. Concentration-response curves were represented and the concentrations for 50% inhibition (IC50) were calculated.

Series [1] relates to C2C12 mouse myoblast cell line. As to the kind of experiment: Scratch wound assay, C2C12 cells. Type of series: cell-based. Particulars: for IC50: Mus musculus, C2C12, inflexion point, from AUC of % wound confluence, read-out: Scratch Assay C2C12 Cells IP; for Scratch Assay C2C12 Cells max inhibition in %: value in parentheses. As for the experimental part:
Cell Cultures: C2C12 mouse myoblast cell line (ATCC, VA, USA) was maintained in culture in DMEM media supplemented with 10% fetal bovine serum, 1 mM sodium pyruvate, 1.5 g/L sodium bicarbonate, and 100 IU of penicillin, […] of streptomycin. The cells were then differentiated into myotubes with DMEM supplemented with 2% horse serum for 3 days in 24 well ImageLock™ plate (Essen Instruments, Mich., USA).
Scratch wound assays are commonly used to assess the effects of drugs and drug candidates on the cellular proliferation and/or migration associated with wound closing. The IncuCyte™ system (Essen Instruments, Mich., USA), an automated imaging platform, provides ongoing, real-time images and quantitative data generated throughout the wound-closing process. Cells were maintained in 24 well ImageLock™ (Essen Instruments, Mich., USA) at 37° C. and […], until a confluent monolayer was achieved. A single scratch wound was then created in each well using the Essen Woundmaker™ (Essen Instruments, Mich., USA). It induced a mechanical scratch of the cell monolayer using plastic pipette tips (10-20 μl pipette tips, Eppendorff). Dead cells and other debris produced by the scratch were immediately washed with regular growth media. Cells were then treated with pharmacological agents and were placed into the IncuCyte™ at 37° C. and […], for two to three days. During this time, the wound area within each well was repeatedly imaged at fixed time intervals (every three hours). The IncuCyte™ scratch wound software generates a “wound mask” for each well. An initial wound mask is created for the first image (at time 0) that clearly delineates the border of the wound. A revised mask is generated for each subsequent image to track wound closure. Wound closure can be automatically monitored using the wound confluence (% confluence). Wound confluence can be graphed over time to evaluate the characteristics of wound closing in the presence of pharmacological agents.
The calculation of the area under the curve (AUC) of the % confluence function of the time gave a quantitative measurement of compounds efficacy on the scratch wound closing. Compounds were titrated in quadruplicate at 5 points concentration starting at […] with a two-fold increment. The percentage of inhibition was calculated from the AUCs at each dose in comparison with the AUCs of the control wells (1% DMSO). Concentration-response curves were represented and the concentrations at the inflexion point (IP) were calculated. The maximum effect was given by the maximum percent inhibition.

Series [2] concerns Primary Rat cortical astrocytes. As to the kind of experiment: Scratch wound assay, astrocytes. The series is classed as cell-based. The protocol: Primary Rat cortical astrocytes were purchased from Lonza (Walkersvelle Inc., MA, USA). Cells were plated in culture flasks at a density of 1.106-3.106 cells/ml, and maintained at 37° C. and […], in Astrocyte Growth Medium Bulletkit™ (Lonza Walkersville Inc., MA, USA). When astrocyte cultures reached confluence, cells were trypsinized and replated at 6.105 cells/ml onto 24 well ImageLock™ plate (Essen Instruments, Mich., USA).
Scratch wound assays are commonly used to assess the effects of drugs and drug candidates on the cellular proliferation and/or migration associated with wound closing. The IncuCyte™ system (Essen Instruments, Mich., USA), an automated imaging platform, provides ongoing, real-time images and quantitative data generated throughout the wound-closing process. […] Wound closure can be automatically monitored using the wound confluence (% confluence). […]
The calculation of the area under the curve (AUC) of the % confluence function of the time gave a quantitative measurement of compounds efficacy on the scratch wound closing. […] The percentage of inhibition was calculated from the AUCs at each dose in comparison with the AUCs of the control wells (1% DMSO). Concentration-response curves were represented and the concentrations at the inflexion point (IP) were calculated. […]

Series [3] has the same test system. As to the kind of experiment: Toxicity (percent of cell death), astrocytes. Type of series: cell-based. Particulars: 20 μM. As for the experimental part: as §1

With `Cc1ccc(NC(=O)c2cccc(C(F)(F)F)c2)cc1-c1ccc(-n2cccn2)cc1` [Example 120], the “Max Toxicity C2C12 in cells % of cell death” value with C2C12 cells came out at 10% 20 μM. For the same compound, on EphA4 kinase, the IC50 stood at 1.59 µM and the “EphA4 Kinase max inhibition in %” value is 70%. Also, in series [1], the IC50 turned out to be 3.1 µM and the “Scratch Assay C2C12 Cells max inhibition in %” value stood at 43%.

For the compound `Cc1ccc(NC(=O)c2cccc(C(F)(F)F)c2)cc1-c1ccc(O)c(NC=O)c1` [Example 133], the “Max Toxicity C2C12 in cells % of cell death” value in the series with C2C12 cells worked out at 10% 20 μM. The IC50 in series [2] (Rattus norvegicus, Astrocyte, inflexion point, from AUC of % wound confluence, read-out: Scratch Assay Astrocytes IP) is 5 µM. Further, the “Scratch Assay Astrocytes max inhibition in %” value in series [2] (value in parentheses) is 50%. Moreover, in series [3], the “Max Toxicity Astrocytes % of cell death” value is 0% 20 μM. For the same compound, on EphA4 kinase, the IC50 was 4.8 µM and the “EphA4 Kinase max inhibition in %” value is 93%. In series [1], the IC50 was found to be 6 µM and the “Scratch Assay C2C12 Cells max inhibition in %” value was 42%.
